Data as given in paper PMC7897990, “TriTOX: A novel Trichomonas vaginalis assay platform for high-throughput screening of compound libraries” (International Journal for Parasitology: Drugs and Drug …, 2021).
Read-outs that look alike come from different tables or passages of the source.

Columns and labels:
[1] = system: nontumorigenic neonatal foreskin fibroblast (NFF) cell line
[2] = system: Trichomonas vaginalis G3 trophozoites; assay: microbe, parasite or virus in culture; details: 48 h
[3] = system: Trichomonas vaginalis G3 trophozoites; details: HTS, parasite screen at 1 µg/mL; for T.vaginalis_Absorbance_Rep1: replicate 1, raw absorbance; for T.vaginalis_Absorbance_Rep2: replicate 2, raw absorbance
[4] = read-out: T.vaginalis_%inb_Rep1
[5] = read-out: T.vaginalis_%inb_Rep2
[6] = NFF fibroblasts, single concentration 5 µg/mL

SMILES	NFF_Activity ([1]; NFF fibroblast screen at 5 µg/mL, A = active, I = inactive)	inhibition of growth at 1 µg/mL [2, 4]	inhibition of growth at 1 µg/mL [2, 5]	T.vaginalis_Absorbance_Rep1 [3]	T.vaginalis_Absorbance_Rep2 [3]	NFF_Activity [1, 6]	NFF_Activity [1]
CC[C@H]1CC2CN3CCc4c([nH]c5ccc(OC)cc45)[C@](C(=O)OC)(C2)[C@H]13 (stereo in doubt) [Voacangine]	I (otherwise these were reported as inactive (I))	9.91%	13.7%	–	–	–	–
C=C1CC[C@H]2C(C)(C)CCC[C@]2(C)[C@H]1C[C@@]12C[C@H]3C(=O)N4CCC[C@H]4C(=O)N3[C@@H]1Nc1ccccc12 [Drimentine C]	–	10.4%	13.8%	0.907	0.85	–	–
Cc1cc(O)c2c(c1)C(=O)c1cc(O)cc(O)c1C2=O [Emodin]	–	17.8%	12.6%	1.052	0.831	–	–
CCc1c(Cl)c(O)c(Cl)c(O)c1C(=O)O[C@H]1[C@H](O)[C@H](OC)[C@H](OC/C2=C\C=C\C[C@H](O)/C(C)=C/[C@H](CC)[C@@H](O[C@@H]3OC(C)(C)[C@@H](OC(=O)C(C)C)[C@H](O)[C@@H]3O)/C(C)=C/C(C)=C/C[C@@H]([C@@H](C)O)OC2=O)O[C@@H]1C [Fidaxomicin]	–	11.5%	10.1%	0.922	0.759	–	–
CS(=O)(=O)c1ccc([C@@H](O)[C@@H](CF)NC(=O)C(Cl)Cl)cc1 [Florfenicol]	–	7.7%	9.33%	0.852	0.749	–	–
CC(=O)O[C@H]1C[C@@]2(C)[C@@H](C[C@@H](O)[C@H]3[C@@]4(C)CC[C@@H](O)[C@@H](C)[C@@H]4CC[C@@]32C)/C1=C(\CCC=C(C)C)C(=O)O [Fusidate sodium]	–	4.26%	1.6%	0.786	0.66	–	–
COC1=C2C[C@@H](C)C[C@H](OC)[C@H](O)[C@@H](C)/C=C(\C)[C@H](OC(N)=O)[C@@H](OC)/C=C\C=C(/C)C(=O)NC(=CC1=O)C2=O [Geldanamycin]	–	13%	14.1%	0.958	0.854	–	–
COC1=CC(=O)C[C@@H](C)[C@]12Oc1c(Cl)c(OC)cc(OC)c1C2=O [Griseofulvin]	–	12.4%	12.1%	0.947	0.823	–	–
CC(=O)O[C@H]1CC[C@@]2(C)[C@@H](CC[C@@H]3[C@@H]2CC(=O)[C@]2(C)[C@@H]4[C@H](C[C@@H]32)O[C@]2(CC[C@@H](C)CO2)[C@H]4C)C1 [Hecogenin acetate]	–	10.4%	14.1%	0.908	0.854	–	–
CC(=O)O[C@H]1C[C@@]2(C)[C@@H](CC[C@H]3[C@@]4(C)C=CC(=O)[C@@H](C)[C@@H]4[C@H](OC(C)=O)C(=O)[C@@]32C)/C1=C(\CCC=C(C)C)C(=O)O [Helvolic acid]	–	5.19%	10.6%	0.864	0.811	–	–
CO[C@@]12[C@H](COC(N)=O)C3=C(C(=O)C(C)=C(N)C3=O)N1C[C@@H]1N[C@@H]12 [Mitomycin C]	–	11.5%	3.72%	–	–	I (otherwise these were reported as inactive (I))	–
CC[C@H]1C[C@@H]2CC[C@@H](O2)[C@@H](C)C(=O)O[C@H](C)C[C@H]2CC[C@H](O2)[C@H](C)C(=O)O[C@@H](C)C[C@@H]2CC[C@@H](O2)[C@@H](C)C(=O)O[C@H](C)C[C@H]2CC[C@H](O2)[C@H](C)C(=O)O1 [Monactin]	–	10%	10.7%	–	–	I (otherwise these were reported as inactive (I))	–
C[C@H]1C(=O)O[C@@H]2CCN3CC=C(COC(=O)[C@](C)(O)[C@]1(C)O)[C@H]23 [Monocrotaline]	–	8.98%	13.2%	–	–	I (otherwise these were reported as inactive (I))	–
CO/N=C1\C[C@]2(C[C@@H]3C[C@@H](C/C=C(\C)C[C@@H](C)/C=C/C=C4\CO[C@@H]5[C@H](O)C(C)=C[C@@H](C(=O)O3)[C@]45O)O2)O[C@H](/C(C)=C/C(C)C)[C@H]1C [Moxidectin]	–	9.23%	6.09%	–	–	I (otherwise these were reported as inactive (I))	–
CCCCCCC(=O)CCCCCC/C=C/C[C@@H](O)[C@H](O)[C@@](N)(CO)C(=O)O [Myriocin]	–	10.9%	15.1%	–	–	I (otherwise these were reported as inactive (I))	–
C[C@@H]1C[C@H]2CC[C@H](O2)[C@H](C)C(=O)O[C@@H](C)C[C@@H]2CC[C@@H](O2)[C@@H](C)C(=O)O[C@H](C)C[C@H]2CC[C@H](O2)[C@H](C)C(=O)O[C@@H](C)C[C@@H]2CC[C@@H](O2)[C@@H](C)C(=O)O1 [Nonactin]	–	11.6%	12.1%	–	–	–	I (key: active (A) compounds having >25% inhibitory activity; otherwise these were reported as inactive (I))

SMILES	NFF_Activity ([1]; NFF fibroblast screen at 5 µg/mL, A = active, I = inactive)	inhibition of growth at 1 µg/mL [2, 4]	inhibition of growth at 1 µg/mL [2, 5]	T.vaginalis_Absorbance_Rep1 [3]	T.vaginalis_Absorbance_Rep2 [3]	NFF_Activity [1, 6]	NFF_Activity [1]
Cn1c2ccccc2c(=O)c2c(O)cc3c(c21)C=CC(C)(C)O3 [Noracronycine]	–	8.76%	12.6%	–	–	I (otherwise these were reported as inactive (I))	–
Cc1cc(O)c(C=O)c2c1C(=O)Oc1c(C)c(O)c3c(c1O2)C(O)OC3=O (stereo not drawn) [Norstictic acid]	–	13.7%	12.1%	–	–	I (otherwise these were reported as inactive (I))	–
C=C(NC(=O)c1csc(-c2nc3c(cc2O)-c2nc(cs2)C(=O)NC(C(C)O)C(=O)N/C(=C\C)c2nc(cs2)C(=O)NC2CC(O)C(=O)OCc4cccc5[nH]c(c(C)c45)C(=O)SCC(NC(=O)c4csc2n4)c2nc-3cs2)n1)C(N)=O (stereo not drawn) [Nosiheptide]	–	2.89%	6.03%	–	–	I (otherwise these were reported as inactive (I))	–
C[C@@H]1Cc2c(Cl)cc(C(=O)N[C@@H](Cc3ccccc3)C(=O)O)c(O)c2C(=O)O1 [Ochratoxin A]	–	13%	11.6%	–	–	I (otherwise these were reported as inactive (I))	–
CC[C@@H]1C=CC=CC[C@H](C)[C@@H](O)[C@@H](C)C(=O)[C@H](C)[C@@H](O)[C@H](C)C(=O)[C@H](C)[C@@H](O)[C@H](C)C=CC(=O)O[C@H]2[C@@H](C)[C@@H](CC1)O[C@@]1(CC[C@@H](C)[C@@H](C[C@H](C)O)O1)[C@@H]2C [Oligomycin C]	–	11.3%	12.9%	–	–	I (otherwise these were reported as inactive (I))	–
CC(C)=C[C@H]1C[C@H](C)[C@]2(CC[C@]3(C)C[C@H]4[C@H](C(=O)C[C@@]4(C)O)/C(C=O)=C\C[C@H]32)O1 [Ophiobolin A]	–	14.2%	13%	–	–	A (active (A) compounds having >25% inhibitory activity)	–
CC(C)=CCC[C@H](C)[C@H]1CC[C@]2(C)C[C@H]3[C@H](C(=O)C[C@@]3(C)O)/C(C=O)=C\C[C@@H]12 [Ophiobolin C]	–	13.1%	12.7%	–	–	A (active (A) compounds having >25% inhibitory activity)	–
O=C1Cc2ccccc2N1 [Oxindole]	–	12.2%	14.4%	–	–	I (otherwise these were reported as inactive (I))	–
CN1C(=O)[C@]23C[C@@H]4C(C)(C)[C@@]5(C[C@@]41CN2CC[C@@]3(C)O)C(=O)Nc1c5ccc2c1OC=CC(C)(C)O2 [Paraherquamide A]	–	15.8%	15.5%	–	–	I (otherwise these were reported as inactive (I))	–
CC(C)(O)[C@H]1O[C@H]2CC[C@@]3(C)[C@@](O)(CC[C@H]4Cc5c([nH]c6ccccc56)[C@@]43C)C2=CC1=O [Paxilline]	–	10.1%	13.3%	–	–	I (otherwise these were reported as inactive (I))	–
O=C(O)c1c(-c2ccc[nH]2)[nH]c2ccccc2c1=O [Penicinoline]	–	13.9%	11%	–	–	I (otherwise these were reported as inactive (I))	–
C=C(C)[C@@H]1NC(=O)[C@@H](NC)[C@@H](O)c2cc(Cl)c(O)c(c2)O[C@](C)(CC)[C@@H](C(=O)N2CC=C[C@H]2C(=O)N/C(C(=O)N/C(=C/C(=O)O)C(=O)O)=C(\C)CC)NC1=O [Phomopsin A]	–	11.7%	11%	–	–	I (otherwise these were reported as inactive (I))	–
C/C=C(\C)[C@H](O)[C@H](C)/C=C(C)/C=C/C/C(C)=C/Cc1nc(OC)c(OC)c(O)c1C [Piericidin A]	–	11.3%	4.17%	–	–	I (otherwise these were reported as inactive (I))	–
C=C1C[C@@]23C=CC(=O)[C@@](C)(CCC(=O)Nc4c(O)ccc(C(=O)O)c4O)[C@@H]2C[C@@H]1CC3 [Platencin]	–	11.3%	10.7%	–	–	I (otherwise these were reported as inactive (I))	–
CC12C[C@@]34C=CC(=O)[C@@](C)(CCC(=O)Nc5c(O)ccc(C(=O)O)c5O)C3[C@H](CC1C4)O2 (stereo partly drawn) [Platensimycin]	–	11.3%	10%	–	–	I (otherwise these were reported as inactive (I))	–
C=C[C@]1(C)C[C@@H](OC(=O)CO)[C@]2(C)[C@H](C)CC[C@]3(CCC(=O)[C@H]32)[C@@H](C)[C@@H]1O [Pleuromutilin]	–	10.1%	11.7%	–	–	I (otherwise these were reported as inactive (I))	–
